Reference: US20240174618A1, “SUBSTITUTED (2-HETEROARYLOXYPHENYL)SULFONATES, SALTS THEREOF AND THEIR USE AS HERBICIDAL AGENTS” (Bayer Aktiengesellschaft, priority 2021, published 2024)

Columns and labels:
Assay type in all cases: in vivo
[1] = system: Matricaria inodora (MATIN); assay: A. Herbicidal pre-emergence efficacy, MATIN
Outline: (§1)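 Pre-emergence soil-surface spray in sandy loam pots, WP/EC in water plus 0.5% additive, 600 L/ha. Visual % damage rating after about 3 weeks in greenhouse vs. untreated; 0% = control-like, 100% = dead plants. Rates up to 1280 g/ha.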

Poa annua (POAAN) = assay: A. Herbicidal pre-emergence efficacy, POAAN
Outline: as §1

Setaria viridis (SETVI) [2] = assay: A. Herbicidal pre-emergence efficacy, SETVI
Outline: as §1

[3] = system: Echinochloa crus-galli (ECHCG); assay: B. Herbicidal post-emergence efficacy, ECHCG; conditions: rated visually after about 3 weeks
Outline: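 Weeds grown in sandy loam in greenhouse pots, sprayed at one-leaf stage (2–3 weeks after sowing) with WP or EC formulations as aqueous suspension/emulsion plus 0.5% additive at 600 L/ha water, rates up to 1280 g/ha. Visual efficacy rated about 3 weeks later versus untreated controls (0% = like control, 100% = dead).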

Setaria viridis (SETVI) [4] = assay: C. Herbicidal pre-emergence efficacy, SETVI; conditions: scored after about 3 weeks
Outline: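 Pre-emergence test: formulated compounds sprayed as aqueous suspension or emulsion with 0.5% additive at 600 l/ha onto soil covering sown seeds, at rates corresponding to 320 g/ha or less. After about 3 weeks in greenhouse, efficacy scored visually as percent versus untreated controls (100% = plants dead).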

Setaria viridis (SETVI) [5] = assay: E. Herbicidal post-emergence efficacy, SETVI
Outline: (§2)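 Greenhouse weeds were treated post-emergence at the one-leaf stage, 2-3 weeks after sowing in sandy loam, with WP or EC formulations sprayed as aqueous suspension/emulsion plus 0.5% additive at 600 l/ha, at 320 g/ha or less. Efficacy was rated visually after about 3 weeks versus untreated controls (100% = dead, 0% = like control).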

Kochia scoparia (KCHSC) = assay: E. Herbicidal post-emergence efficacy, KCHSC
Outline: as §2

[6] = system: Triticum aestivum (TRZAS); assay: F. Post-emergence effect on useful plants, TRZAS; conditions: useful plant
Outline: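 Crop plants grown in sandy loam in the greenhouse were sprayed at the one-leaf stage, 2-3 weeks after sowing, with WP or EC formulations plus 0.5% additive at 600 l/ha water. Damage was scored visually after about 3 weeks against untreated controls (0% = like control, 100% = dead).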

[7] = pre-emergence, dosage 1280 g/ha
[8] = 320 g/ha, scored visually after about 3 weeks vs untreated controls

SMILES | Pre-emergence efficacy against MATIN [1, 7] | Pre-emergence efficacy against POAAN (Poa annua (POAAN); dosage 320 g/ha) | Pre-emergence efficacy against POAAN (Poa annua (POAAN); dosage 1280 g/ha) | Pre-emergence efficacy against SETVI (Setaria viridis (SETVI) [2]; dosage 320 g/ha) | Pre-emergence efficacy against SETVI (Setaria viridis (SETVI) [2]; dosage 1280 g/ha) | Post-emergence efficacy against ECHCG in % ([3]; 80 g/ha) | Post-emergence efficacy against ECHCG in % ([3]; 320 g/ha) | Post-emergence efficacy against ECHCG in % ([3]; 1280 g/ha) | Pre-emergence efficacy against SETVI (Setaria viridis (SETVI) [4]; 80 g/ha) | Pre-emergence efficacy against SETVI (Setaria viridis (SETVI) [4]; 320 g/ha) | Post-emergence efficacy against SETVI in % (Setaria viridis (SETVI) [5]; application rate 80 g/ha) | Post-emergence efficacy against SETVI in % (Setaria viridis (SETVI) [5]; application rate 320 g/ha) | Post-emergence efficacy against KCHSC in % (Kochia scoparia (KCHSC); application rate 80 g/ha) | Post-emergence efficacy against KCHSC in % (Kochia scoparia (KCHSC); application rate 320 g/ha) | Post-emergence efficacy against TRZAS in % ([6]; application rate 80 g/ha) | Post-emergence efficacy against TRZAS in % ([6]; application rate 320 g/ha) | Pre-emergence efficacy against MATIN [1, 8] | Pre-emergence efficacy against SETVI (Setaria viridis (SETVI) [2]; dosage 80 g/ha) | Pre-emergence efficacy against POAAN (Poa annua (POAAN); dosage 80 g/ha)
O=S(=O)(CCC(F)(F)F)Oc1c(Cl)cccc1Oc1ncc(Br)cn1 [Example I-32] | 90% | 90% | 90% | 90% | 100% | 90% | 90% | 100% | 90% | 100% | 80% | 100% | 90% | 100% | 0% | 20% |  |  | 
O=S(=O)(CCC(F)(F)F)Oc1c(Cl)cccc1Oc1ncc(Cl)cn1 [Example I-38] | 100% | 100% | 100% | 100% | 100% |  |  |  | 100% | 100% | 100% | 100% | 100% | 100% | 10% | 20% | 100% | 90% | 
O=S(=O)(CCCC(F)(F)F)Oc1c(Cl)cccc1Oc1ncc(Cl)cn1 [Example I-39] | 100% | 100% | 100% | 100% | 100% |  |  |  | 100% | 100% | 100% | 100% | 100% | 100% | 0% | 20% | 100% | 90% | 
O=S(=O)(CCC(F)(F)F)Oc1c(F)cccc1Oc1ncc(Br)cn1 [Example I-40] | 100% | 100% | 100% | 100% | 100% |  |  |  | 100% | 100% | 100% | 100% | 100% | 100% | 10% | 20% | 100% | 100% | 100%
O=S(=O)(CCCC(F)(F)F)Oc1c(F)cccc1Oc1ncc(Br)cn1 [Example I-41] | 100% | 100% | 100% | 100% | 100% |  |  |  | 100% | 100% | 100% | 100% | 100% | 100% | 0% |  | 100% | 100% | 100%
Cc1cccc(Oc2ncc(F)cn2)c1OS(=O)(=O)CCC(F)(F)F [Example I-45] | 90% | 100% | 100% | 100% | 100% |  | 100% | 100% | 100% | 100% |  | 80% |  | 90% | 0% | 0% |  | 90% | 90%
Cc1cccc(Oc2ncc(F)cn2)c1OS(=O)(=O)CCCC(F)(F)F [Example I-46] | 90% | 100% | 100% | 100% | 100% | 90% | 90% | 100% | 100% | 100% |  | 80% |  | 100% | 0% | 10% |  | 90% | 90%
O=S(=O)(CCC(F)(F)F)Oc1c(F)cccc1Oc1ncc(F)cn1 [Example I-47] | 100% | 100% | 100% | 100% | 100% | 90% | 100% | 100% | 100% | 100% |  | 100% | 100% | 100% | 0% |  | 100% | 100% | 100%
O=S(=O)(CCC(F)(F)F)Oc1c(F)cccc1Oc1ncc(Cl)cn1 [Example I-48] | 100% | 100% | 100% | 90% | 100% |  | 90% | 90% | 100% | 100% | 100% | 100% | 100% | 100% | 10% |  | 100% | 90% | 90%
O=S(=O)(CCCC(F)(F)F)Oc1c(F)cccc1Oc1ncc(Cl)cn1 [Example I-49] | 100% | 100% | 100% | 100% | 100% | 90% | 90% | 90% | 100% | 100% | 100% | 100% | 100% | 100% | 20% |  | 100% | 90% | 90%
C=CCCS(=O)(=O)Oc1c(F)cccc1Oc1ncc(Cl)cn1 [Example I-50] | 90% | 90% | 100% | 90% | 100% |  |  | 90% | 100% | 100% |  | 90% | 80% | 100% | 0% | 10% |  | 90% | 90%
COCCS(=O)(=O)Oc1c(F)cccc1Oc1ncc(Cl)cn1 [Example I-52] | 90% | 90% | 100% | 100% | 100% |  |  | 90% |  | 100% |  | 80% | 90% | 100% | 0% | 0% |  |  | 
